In patent publication US20090124663A1, “Novel n-phenyl-piperidine derivatives and their use as monoamine neurotransmitter re-uptake inhibitors” (NeuroSearch A/S, priority 2005, published 2009):
Counter-ions that a name gives are not always drawn.

Legend:
[1] = biological target: T1, reuptake of serotonine (5-HT) in synaptosomes (Rattus norvegicus, UniProt P31652); assay: Inhibition of serotonin reuptake in synaptosomes; format: biochemical
T1 construct: in synaptosomes as described in WO 97/16451; from tissue
T1 sequence (P31652 whole entry): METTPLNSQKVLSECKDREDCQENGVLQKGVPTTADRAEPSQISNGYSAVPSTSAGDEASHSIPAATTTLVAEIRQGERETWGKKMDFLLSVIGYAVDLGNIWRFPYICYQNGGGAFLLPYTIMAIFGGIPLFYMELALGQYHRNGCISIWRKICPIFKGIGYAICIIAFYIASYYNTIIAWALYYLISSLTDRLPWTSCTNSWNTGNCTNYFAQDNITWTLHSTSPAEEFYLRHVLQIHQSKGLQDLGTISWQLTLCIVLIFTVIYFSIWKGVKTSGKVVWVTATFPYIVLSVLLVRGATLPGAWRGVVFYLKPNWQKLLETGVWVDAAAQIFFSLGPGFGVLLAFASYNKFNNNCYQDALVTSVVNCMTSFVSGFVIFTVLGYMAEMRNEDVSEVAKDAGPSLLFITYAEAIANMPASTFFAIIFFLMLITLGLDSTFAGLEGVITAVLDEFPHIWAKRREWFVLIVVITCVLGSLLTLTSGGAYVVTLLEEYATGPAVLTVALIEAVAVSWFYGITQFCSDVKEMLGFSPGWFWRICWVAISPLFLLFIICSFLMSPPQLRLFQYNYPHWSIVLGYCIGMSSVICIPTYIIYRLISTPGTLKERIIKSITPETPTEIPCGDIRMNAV
Method: (§1) Compounds were tested for their ability to inhibit the reuptake of the monoamine neurotransmitters dopamine (DA) noradrenaline (NA) and serotonine (5-HT) in synaptosomes as described in WO 97/16451.
(§2) The test values are given as IC50 (the concentration (μM) of the test substance which inhibits the specific binding of ^3H-DA, ^3H-NA, or ^3H-5-HT by 50%).

[2] = biological target: T2, reuptake of dopamine (DA) in synaptosomes (Rattus norvegicus, UniProt P23977); assay: Inhibition of dopamine reuptake in synaptosomes; format: biochemical
T2 construct: in synaptosomes as described in WO 97/16451; from tissue
T2 sequence (P23977 whole entry): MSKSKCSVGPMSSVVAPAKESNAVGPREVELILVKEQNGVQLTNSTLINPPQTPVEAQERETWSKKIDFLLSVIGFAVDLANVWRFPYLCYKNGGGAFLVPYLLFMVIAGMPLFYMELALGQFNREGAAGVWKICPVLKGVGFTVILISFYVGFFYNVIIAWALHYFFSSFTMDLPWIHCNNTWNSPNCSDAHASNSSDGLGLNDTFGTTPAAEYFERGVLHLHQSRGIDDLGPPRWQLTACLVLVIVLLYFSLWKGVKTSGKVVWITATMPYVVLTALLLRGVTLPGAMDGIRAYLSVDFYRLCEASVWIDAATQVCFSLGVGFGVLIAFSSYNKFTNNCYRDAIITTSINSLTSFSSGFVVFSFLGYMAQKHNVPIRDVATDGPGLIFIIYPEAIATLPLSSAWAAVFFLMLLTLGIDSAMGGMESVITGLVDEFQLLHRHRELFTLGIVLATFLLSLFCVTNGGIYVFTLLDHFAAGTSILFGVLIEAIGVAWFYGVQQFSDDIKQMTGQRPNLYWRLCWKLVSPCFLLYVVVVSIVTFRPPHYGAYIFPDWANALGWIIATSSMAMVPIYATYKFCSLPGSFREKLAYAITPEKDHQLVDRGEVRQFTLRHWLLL
Method: as §1, §2

[3] = biological target: T3, reuptake of noradrenaline (NA) in synaptosomes (Rattus norvegicus, UniProt Q9WTR4); assay: Inhibition of noradrenaline reuptake in synaptosomes; format: biochemical
T3 construct: in synaptosomes as described in WO 97/16451; from tissue
T3 sequence (Q9WTR4 1-597): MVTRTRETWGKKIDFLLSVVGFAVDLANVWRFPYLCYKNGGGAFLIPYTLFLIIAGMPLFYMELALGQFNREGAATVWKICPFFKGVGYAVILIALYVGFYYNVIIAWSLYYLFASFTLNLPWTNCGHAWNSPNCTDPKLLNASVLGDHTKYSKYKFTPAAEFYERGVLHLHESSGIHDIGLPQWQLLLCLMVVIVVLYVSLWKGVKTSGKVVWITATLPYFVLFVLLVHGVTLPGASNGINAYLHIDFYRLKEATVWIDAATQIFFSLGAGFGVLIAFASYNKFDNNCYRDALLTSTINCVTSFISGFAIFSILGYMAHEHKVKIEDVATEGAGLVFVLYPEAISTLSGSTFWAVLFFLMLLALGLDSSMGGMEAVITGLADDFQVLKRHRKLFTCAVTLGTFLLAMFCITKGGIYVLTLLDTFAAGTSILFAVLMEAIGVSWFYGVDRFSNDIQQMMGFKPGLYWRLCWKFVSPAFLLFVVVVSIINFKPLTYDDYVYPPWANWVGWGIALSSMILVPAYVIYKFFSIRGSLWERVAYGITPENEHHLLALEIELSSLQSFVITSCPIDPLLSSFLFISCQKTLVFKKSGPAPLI
Method: as §1, §2

SMILES | IC50 [1] | IC50 [2] | IC50 [3] | melting point
NC1CCN(c2ccc(Cl)c(Cl)c2)CC1 [1st compound of method A, 1-(3,4-Dichloro-phenyl)-piperidin-4-ylamine] | 27 nM | 400 nM | 150 nM | 
CNC1CCN(c2ccc(Cl)c(Cl)c2)CC1 (as salt: hydrochloric acid salt) [1st compound of method B, [1-(3,4-Dichloro-phenyl)-piperidin-4-yl]-methyl-amine] |  |  |  | 240 to 244 °C
CNC1CCN(c2ccc(Cl)c(Cl)c2)CC1 [1st compound of method B, [1-(3,4-Dichloro-phenyl)-piperidin-4-yl]-methyl-amine] | 27 nM | 380 nM | 200 nM | 
NC1CCN(c2ccc(Cl)c(Cl)c2)CC1 (as salt: hydrochloric acid salt) [1st compound of method A, 1-(3,4-Dichloro-phenyl)-piperidin-4-ylamine] |  |  |  | > 250 °C (dec.)
